Measured values: patent publication US8962575B2, “Clerodane derivatives for modulation of leukotriene receptor activity and related diseases” (Biotropics Malaysia Berhad, priority 2011, dated 2015)

biological target: T1, Human BLT2 Receptor (Homo sapiens, UniProt Q9NPC1); test: Recombinant cell assay (calcium flux, antagonist mode, LTB4 pre-stimulation); assay type: cell-based; details: pure compounds at 10 μM, 5 min pre-incubation; antagonist mode with LTB4; BLT2 HEK293T cells
T1 construct: host or cells: BLT2 HEK293T cells transiently transfected with chimeric G protein Gαqi5
T1 sequence (Q9NPC1 1-358): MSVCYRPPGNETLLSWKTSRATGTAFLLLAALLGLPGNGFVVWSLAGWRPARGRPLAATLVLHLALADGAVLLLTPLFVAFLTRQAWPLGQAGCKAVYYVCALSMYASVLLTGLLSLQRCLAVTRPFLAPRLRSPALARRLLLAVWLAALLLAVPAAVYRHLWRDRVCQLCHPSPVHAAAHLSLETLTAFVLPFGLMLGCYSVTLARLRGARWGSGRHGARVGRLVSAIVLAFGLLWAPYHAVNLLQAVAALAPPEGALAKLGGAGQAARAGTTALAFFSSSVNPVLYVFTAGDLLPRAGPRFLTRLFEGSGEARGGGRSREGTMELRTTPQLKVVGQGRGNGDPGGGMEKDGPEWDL
Experimental: A) Recombinant Cell Assay (Human BLT2 Receptor)
The BLT2 assay conducted was a functional cell based assay, with transiently transfected HEK293T cells (Transfection: with chimeric G protein Gαqi5; Minami et al, “Analysis of the effects of halothane on Gi-coupled muscarinic M2 receptor signal” Pharmacology (2004) 72: 205-12). […] The test items were measured subsequently in the antagonist mode as described above in a concentration of 10 μM (pure compounds) or 15 μg/ml (extracts and/or mixtures).
This assay was performed by Multispan, Inc., Hayward (CA, USA) under the catalog no C1272, the assay principle is outlined by Yokomizo (J Exp Med (2000) 192:421-432).
• Cells: BLT2 HEK293T cells transiently transfected with chimeric G protein Gαqi5 • Compounds: Test compounds dissolved in DMSO at a concentration of 10 mM or 100 mg/mL.
Calcium assay: Cells were seeded in 384-well plates at appropriate densities and cultured overnight. Calcium assays were conducted according to the manufacturer's protocol using Molecular Devices FLIPR Calcium 4 Assay kit. Calcium 4 dye loading buffer was added to the cells and incubated for one hour at 37° C. The test compounds were pre-incubated for 5 minutes at a final concentration of 10 μM or 15 μg/mL, respectively. Calcium flux was measured for 90 seconds with the respective agonist compound injected into the wells at 19th second. Agonist was used at a concentration in which maximum reaction was observed.
Data analysis: Calcium assay results are expressed as “RFU” (Relative Fluorescence Units) and are shown in the following table as “remaining % RFU against DMOS) (meaning % Increase in RFU after correction for DMSO and baseline). Two-tailed Student's t-test was used for treatment comparisons and statistic significance was defined as p<0.05.

Row | remaining % RFU against DMSO [%] | Compound
1 | 79.7 | COC(=O)C1=CCCC2C3(C)CC(c4ccoc4)OC(=O)C3CC(OC3OC(CO)C(OC4OC(CO)C(O)C(O)C4O)C(O)C3O)C12C (stereo not drawn) [COI 5, methyl 6-(3,4-dihydroxy-6-(hydroxymethyl)-5-(3,4,5-trihydroxy-6-(hydroxymethyl)tetrahydro-2H-pyran-2-yloxy)tetrahydro-2H-pyran-2-yloxy)-2-(furan-3-yl)-6a,10b-dimethyl-4-oxo-2,4,4a,5,6,6a,9,10,10a,10b-decahydro-1H-benzo[f]isochromene-7-carboxylate]
2 | 83.2 | CC12CC(c3ccoc3)OC(=O)C1CC1OC(=O)C3(O)C(OC4OC(CO)C(O)C(O)C4O)CCC2C13C (stereo not drawn) [COI 7, 9-(furan-3-yl)-3a-hydroxy-3a1,10a-dimethyl-3-(3,4,5-trihydroxy-6-(hydroxymethyl)tetrahydro-2H-pyran-2-yloxy)decahydroisobenzofuro[7,1-fg]isochromene-4,7(3a1H,5aH)-dione]
3 | 78.6 | COC(=O)C1=CC(O)CC2C3(C)CC(c4ccoc4)OC(=O)C3CC(OC3OC(CO)C(O)C(O)C3O)C12C (stereo not drawn) [COI 4, methyl 2-(furan-3-yl)-9-hydroxy-6a,10b-dimethyl-4-oxo-6-(3,4,5-trihydroxy-6-(hydroxymethyl)tetrahydro-2H-pyran-2-yloxy)-2,4,4a,5,6,6a,9,10,10a,10b-decahydro-1H-benzo[f]isochromene-7-carboxylate]
